Assay: Decomposition temperature of sensitive compounds and of the encapsulated additives
Format: physicochemical
Conditions: not encapsulated
Source text: The sensitive compounds set forth in Table 1 constitute preferred examples of compounds that may be used in the preparation of the active and intelligent additive according to the present invention. The sensitive compounds release a certain amount of electrons according to the characteristic reaction for each compound.

Compound | Decomposition Temperature of the Sensitive Compound [°C]
Citric Acid | 175
O=C1O[C@H]([C@@H](O)CO)C(O)=C1O [Ascorbic Acid] | 190

From US10144817B2, “Active and intelligent additive, polymer and article” (Braskem S.A., priority 2010, dated 2018)
